Reference: article PMC11267533, “Ligandability at the Membrane Interface of GPx4 Revealed through a Reverse Micelle Fragment Screening Platform” (JACS Au, 2024)

What was measured:
[1] = molecular target: T1, GPx4 bound to DPC micelles (Homo sapiens, UniProt P36969, U73G); assay: 15N-HSQC CSP experiment with GPx4 bound to DPC micelles; assay type: binding; conditions: 400 μM analogue, 0.4% DMSO
T1 construct: Truncated U46G-GPx4 with a TEV cleavable poly-histidine tag was inserted into vector; poly-histidine tag with TEV cleavage site; host or cells: BL21 (DE3) E. coli
T1 sequence (P36969 1-170 isoform P36969-2 U46G): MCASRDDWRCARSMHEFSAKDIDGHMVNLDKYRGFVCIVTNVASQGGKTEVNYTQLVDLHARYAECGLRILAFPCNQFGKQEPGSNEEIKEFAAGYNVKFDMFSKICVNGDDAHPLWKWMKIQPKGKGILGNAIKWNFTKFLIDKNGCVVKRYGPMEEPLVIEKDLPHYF
Excerpt: To investigate whether or not these fragments could be built upon and progress to higher affinity binders and potentially inhibitors, a secondary screening approach was used to find analogues of the original fragments. A fragment growing approach was followed due to the high success rate of improving fragment hits.[61],[62] Fragment growing improves binding affinity, or other properties, with the addition of different substitutions and/or expansions.[20] Commercially available analogues of fragments 1 and 5 were found by searching the ChemBridge (San Diego, CA) catalog for analogues with a 60% similarity for fragment 1 and a 70% similarity for fragment 5. A subset of analogues for each fragment was purchased and tested. These two fragments were the main focus for fragment progression due to their observed ability to partition into bilayers and bind to inhibitory regions of membrane-bound GPx4. Fragment 6 was not investigated further since it resides mainly in the water core of the mmRM model, and while interesting, it falls outside of our focus for this study. While all the five selected fragment 1 analogues produced reasonable CSPs in the membrane interface of GPx4; none produced titration curves that indicated enhanced binding (Table S1). […]

[2] = DLS check for fragment aggregation in aqueous conditions; assay type: physicochemical; conditions: 15 mM, 5% DMSO
Method: Next, we sought to understand whether fragment hits were solely bound to the membrane-embedded form of GPx4 or could also bind to the aqueous form. We performed aqueous binding experiments with 3 fragment hits with varying hydrophobicities. Of the fragment hits with Kd < 1 mM, the most hydrophobic fragment (fragment 5, cLog D 2.05, 5-hydroxy-1,3-benzoxathiol-2-one) and a hydrophilic fragment with the strongest affinity (fragment 6, cLog D −2.14, (2-methoxyethyl)(4-pyridinylmethyl)amine hydrochloride) were selected, along with a compound with an amphipathic structure and only modest hydrophobicity (fragment 1, cLog D 1.05, 4-(phenylamino)-1,2-dihydropyridin-2-one). Aqueous GPx4 was combined with 400 μM of either fragments 1, 5, or 6 to directly compare to the mmRM experiments. […] Since our fragments have variable degrees of solubility and partitioning, we realized that a hydrophilic fragment like 6 may partition into the water core of the mmRM, essentially causing a concentration effect as observed previously.[32],[33] […]
Fragments 1, 5, and 6 were selected to perform proof-of-concept experiments in bulk aqueous conditions. […] However, the 100 mM Bis-Tris at pH 6.0 ensured that the pH was not altered. ^15N-HSQC experiments were collected, and CSPs were analyzed and compared to the top-shifting resonances determined from the mmRM experiments. […]

Row | SMILES | CSPs of GPx4 bound to DPC micelles [1] | Fragment aggregation by DLS [2]
1 | O=c1oc2c(-c3ccc(Cl)c(Cl)c3)cc(O)cc2s1 [Analog 5.5] | reasonable CSPs were observed | –
2 | O=c1oc2ccc(O)cc2s1 [Fragment 5, 5-hydroxy-1,3-benzoxathiol-2-one] | – | a small population of large aggregating species
3 | O=c1cc(Nc2ccccc2)cc[nH]1 [Fragment 1, 4-(phenylamino)-1,2-dihydropyridin-2-one] | – | a small population of large aggregating species
